Each structure is given as a SMILES string. Where a name gives a salt, the structure may show the parent alone.

What all share (assay type): cell-based
The subject of one test is MV-4-11. The test is described as follows: Cytostatic activity on human acute myeloid leukemia cell line MV-4-11 (WST-1). The settings on record: MV4-11, 3.16 μmol/L, 72 hours, read-out: MV-4-11 (%) cytostatic rate. How it is done: (§1) The cytostatic rates of a test compound on human acute myeloid leukemia cell lines MV-4-11 and ML-1, and human chronic myeloid leukemia cell line K562 were determined in the following manner.
(§2) Each cell was cultured using Roswell Park Memorial Institute's Medium (RPMI) 1640 (Gibco, Catalog No. 11875-093) containing 10% fetal bovine serum (Gibco, Catalogue No. 10437-028) and penicillin/streptomycin (1:1) (Gibco, Catalogue No. 15140-122). Each 80 μL of the MV-4-11 cell having a concentration of 7.5×10^4 cells/mL (or the ML-1 cell or K562 cell having a concentration of 2.5×10^4 cells/mL) was inoculated to wells of a TC MICROWELL 96U plate (Nalge Nunc International, Catalogue No. 163320) and was cultured in a 5% carbon dioxide gas incubator at 37° C. for 4 hours. As a blank, only RPMI medium (80 μL) was added to a well. Each 20 μL of a solution of the test compound in dimethyl sulfoxide (DMSO) which was prepared to make the final concentration to 3.16 μmol/L or 10 μmol/L, was added to the MV-4-11 cell, ML-1 cell and K562 cell, respectively. Each 20 μL of DMSO was added to the control well and the blank well to a final concentration of 0.1%. After adding the test compound, the cells were incubated in a 5% carbon dioxide gas incubator at 37° C. for 72 hours. After adding 20 μL of WST-1 reagent {4-[3-(4-iodophenyl)-2-(4-nitrophenyl)-2H-5-tetrazolio]-1,3-benzene disulfonate sodium salt) (Roche Diagnostics K.K., Catalogue No. 1644807) diluted to 50% with RPMI medium, the cells were further incubated at 37° C. for 2 hours. Then, the absorbances at 450 nm (reference wavelength: 690 nm) were determined with a microplate spectrophotometer SPECTRA max 340PC (Molecular Devices Corporation). The relative growth (%) of a well to which the test compound had been added was determined while setting the absorbance of a well to which not the test compound but DMSO alone had been added (control) at 100% and that of a well containing RPMI medium alone at 0%. The cytostatic rate (%) of the test compound was determined by subtracting the calculated relative growth from 100.
Background: Formazan colour is commonly taken as a measure of viable cells.

For the next test, the system named is K562. Briefly: Cytostatic activity on human chronic myeloid leukemia cell line K562 (WST-1). The following applies: 10 μmol/L, 72 hours, read-out: K562 (%) cytostatic rate. As to the method: as §1, §2
For another test, the system named is ML-1. Briefly: Cytostatic activity on human acute myeloid leukemia cell line ML-1 (WST-1). The following applies: ML1, 3.16 μmol/L, 72 hours, read-out: ML-1 (%) cytostatic rate. As to the method:
as §1, §2

The subject of a further test is Colo205. The test is described as follows: Cytostatic activity on human colon cancer cell line Colo205 (WST-1). The following applies: 10 μmol/L, 72 hours. As to the method:
The cytostatic rate of a test compound on the human colon cancer cell line Colo205 was determined in the following manner.
The cell was cultured using Roswell Park Memorial Institute's-Medium (RPMI) 1640 (Gibco, Catalog No. 11875-093) containing 10% fetal bovine serum (Gibco, Catalog-No. 10437-028) and penicillin/streptomycin (1:1) (Gibco, Catalog No. 15140-122). Each 80 μL of the Colo205 having a concentration of 1.25×10^4 cells/mL was inoculated to wells of a TC MICROWELL 96F plate (Nalge Nunc International, Catalog No. 167008) and was cultured in a 5% carbon dioxide gas incubator at 37° C. for 4 hours. As a blank, only RPMI (80 μL) was added to a well. Each 20 μL of a solution of the test compound in DMSO which was prepared to make the final concentration to 10 μmol/L, was added to the Colo205 cell. Each 20 μL of DMSO was added to the control well and the blank well to a final concentration of 0.1%. After adding the test compound, the cell was incubated in a 5% carbon dioxide gas incubator at 37° C. for 72 hours. The cytostatic rate (%) was then determined in the same manner as the method or the leukemia cell lines described above.

In the case of `C(=C\c1n[nH]c2ccccc12)/c1ccc(OCCN2CCCCC2)cc1` [Compound 8, (E)-3-{2-[4-(2-piperidinoethoxy)phenyl]vinyl}-1H-indazole hydrochloride], the inhibition at 3.16 µM was found to be 97% in the test on MV-4-11 and 90% in the test with ML-1. The inhibition at 10 µM in the test on K562 was determined as 94%.
As for `C(=C\c1n[nH]c2ccccc12)/c1ccc(OCCCN2CCCCC2)cc1` [Compound 9, (E)-3-{2-[4-(3-piperidinopropoxy)phenyl]vinyl}-1H-indazole hydrochloride], the inhibition at 3.16 µM in the test with MV-4-11 was found to be 97%; in the test on ML-1, 92%. Further, the inhibition at 10 µM with K562 came out at 97%.
Regarding `CN(C)CCCOc1ccc(/C=C/c2n[nH]c3ccccc23)cc1` [Compound 10, (E)-3-{2-[4-(3-dimethylaminopropoxy)phenyl]vinyl}-1H-indazole hydrochloride], the inhibition at 3.16 µM came to 97% in the test with MV-4-11 and 92% in the test with ML-1. For the same compound, the inhibition at 10 µM in the test with K562 stood at 95%.
As to `CN(C)CCOc1cccc(/C=C/c2n[nH]c3ccccc23)c1` [Compound 18, (E)-3-{2-[3-(2-dimethylaminoethoxy)phenyl]vinyl}-1H-indazole hydrochloride], the figures for the inhibition at 3.16 µM with MV-4-11 and with ML-1 were 95% and 4.1%, respectively. The inhibition at 10 µM with K562 worked out at 59%.
Consider `C(=C\c1n[nH]c2ccccc12)/c1cccnc1` [Compound 21, (E)-3-[2-(3-pyridyl)vinyl]-1H-indazole], for which the figures for the inhibition at 3.16 µM with MV-4-11 and in the test with ML-1 were 79% and 25%, respectively. Besides, in the test with K562, the inhibition at 10 µM came to 41%.
On the same counts, the results for `COc1ccc(/C=C/c2n[nH]c3ccccc23)cn1` [Compound 22, (E)-3-[2-(6-methoxypyridin-3-yl)vinyl]-1H-indazole] are 82%, 9.2% and 63%.
For the compound `CC(=O)N1CCN(c2ccc(/C=C/c3n[nH]c4ccccc34)cc2N)CC1` [Compound 58, (E)-3-{2-[4-(4-acetylpiperazin-1-yl)-3-aminophenyl]vinyl}-1H-indazole], in the test on Colo205, the “Colo205(%) cytostatic rate” value is recorded as 91%. Moreover, the inhibition at 3.16 µM came to 97% in the test with MV-4-11 and 90% in the test on ML-1. Moreover, the inhibition at 10 µM in the test on K562 came to 61%.
For `Nc1cc(/C=C/c2n[nH]c3ccccc23)ccc1N1CCNCC1` [Compound 59, (E)-3-{2-[3-amino-4-(piperazin-1-yl)phenyl]vinyl}-1H-indazole], in the test on Colo205, the “Colo205(%) cytostatic rate” value is 89%. Moreover, the inhibition at 3.16 µM in the test on MV-4-11 amounted to 98%; with ML-1 it was 86%. Further, the inhibition at 10 µM in the test on K562 amounted to 84%.
